Experimental data published in patent publication US20150218654A1, “METHODS FOR PREDICTING MULTIPLE MYELOMA TREATMENT RESPONSE” (INSERM (INSTITUT NATIONAL DE LA SANTÉ ET DE LA RE- CHERCHE …, priority 2012, published 2015).

System: HMCLs XG-5, XG-6, XG-7, XG-20 and LP1
Conditions: 0.5 μM, 7 days, treated vs control, 5 HMCLs
Procedure: Control cells were cultured in the same conditions without adding drug. […] Biotinylated cRNA was amplified with a double in vitro transcription and hybridized to the human U133 2.0 plus GeneChips, according to the manufacturer's instructions (Affymetrix, Santa Clara, Calif.). Fluorescence intensities were quantified and analyzed using the GECOS software (Affymetrix). Gene expression data were normalized with the MASS algorithm and analyzed with inventor's bioinformatics platforms-RAGE (http://[…] Amazonia (http://amazonia.[…] /) (36)-or SAM (Significance Analysis of Microarrays) software (37). The statistical significance of differences in overall survival between groups of patients was calculated by the log-rank test. Multivariate analysis was performed using the Cox proportional hazards model. Survival curves were plotted using the Kaplan-Meier method. All these analyses have been done with R.2.10.1 (http://www.r-project.org/) and bioconductor version 2.5. Gene annotation and networks were generated through the use of Ingenuity Pathways Analysis (Ingenuity® Systems, Redwood City, Calif.) (38).

## Nc1ncn([C@H]2C[C@H](O)[C@@H](CO)O2)c(=O)n1 [decitabine, 5-Aza-2′-deoxycytidine]
  Ratio IFI27 (202411_at): 2.84
  Ratio IFI35 (209417_s_at): 1.93
  Ratio IFRD1 (202146_at): 0.51
  Ratio IGF1 (209541_at): 0.43
  Ratio IL21R (221658_s_at): 0.50
  Ratio INHBE (210587_at): 0.55
  Ratio INSIG1 (201625_s_at): 0.34
  Ratio ITGB7 (205718_at): 2.11
  Ratio KIAA0776 (212633_at): 0.49
  Ratio KIAA1509 (215343_at): 2.21
  Ratio KIF21B (204411_at): 0.53
  Ratio LOC220930 (229090_at): 0.45
  Ratio LRP16 (219188_s_at): 0.36
  Ratio MAGEA9 (210437_at): 1.68
  Ratio MAN1A1 (221760_at): 0.43
  Ratio MANEA (222805_at): 0.51
  Ratio MGC15875 (232488_at): 0.55
  Ratio MIRN21 (224917_at): 1.99
  Ratio MLLT11 (211071_s_at): 2.53
  Ratio MTHFD1L (225520_at): 0.41
  Ratio MUC1 (207847_s_at): 2.92
  Ratio MX1 (202086_at): 1.73
  Ratio MYLIP (223129_x_at): 2.00
  Ratio NFE2L1 (214179_s_at): 0.59
  Ratio NMES1 (223484_at): 23.96
  Ratio NMI (203964_at): 1.86
  Ratio NQO1 (201468_s_at): 2.15
  Ratio OAS1 (205552_s_at): 1.65
  Ratio OPN1SW (229549_at): 0.40
  Ratio PARP12 (218543_s_at): 1.92
  Ratio PCK2 (202847_at): 0.47
  Ratio PGM3 (221788_at): 0.49
  Ratio PHGDH (201397_at): 0.36
  Ratio PLAC1 (219702_at): 0.42
  Ratio PPAPDC1B (223569_at): 0.42
  Ratio PSCDBP (209606_at): 0.48
  Ratio PSPH (205194_at): 0.38
  Ratio RECQL (213878_at): 0.44
  Ratio RPL37 (224763_at): 0.35
  Ratio SAMD9 (228531_at): 2.06
  Ratio SCD (200831_s_at): 0.39
  Ratio SEC24D (202375_at): 0.31
  Ratio SEC63 (201915_at): 0.51
  Ratio SEL1L (202061_s_at): 0.56
  Ratio SESN2 (223195_s_at): 0.47
  Ratio SFN (33322_i_at): 4.34
  Ratio SLAMF7 (222838_at): 0.51
  Ratio SLC1A4 (209610_s_at): 0.54
  Ratio SLC1A5 (208916_at): 0.40
  Ratio SLC7A11 (209921_at): 0.41
  Ratio SNTB1 (226438_at): 0.36
  Ratio SP110 (208012_x_at): 2.11
  Ratio SSR3 (217790_s_at): 0.40
  Ratio STAT1 (209969_s_at): 2.55
  Ratio STCH (202558_s_at): 0.47
  Ratio STK17A (202693_s_at): 2.52
  Ratio SULT1A3 (210580_x_at): 2.52
  Ratio TBC1D16 (222116_s_at): 0.70
  Ratio TKTL1 (214183_s_at): 85.24
  Ratio TMEM39A (222690_s_at): 0.46
  Ratio TMEM49 (1569003_at): 2.33
  Ratio TPST2 (204079_at): 2.20
  Ratio TRIB3 (218145_at): 0.41
  Ratio TSC22D3 (208763_s_at): 0.53
  Ratio TUBA2 (210527_x_at): 2.50
  Ratio TUBA3 (209118_s_at): 2.23
  Ratio TUBB2 (204141_at): 5.07
  Ratio TUBE1 (226181_at): 0.38
  Ratio ZNF275 (225382_at): 0.35
  Ratio ZNF706 (227132_at): 0.49
